Assay results taken from US8178506B2, “Oligomeric compounds and compositions for use in modulation of small non-coding RNAs” (Regulus Therapeutics Inc., priority 2003, dated 2012).
In the oligonucleotide strings, read from the 5' end, every base follows the letter of its sugar. An asterisk marks phosphorothioate; unmarked linkages are phosphodiester. Other units and linkages are bracketed, terminal groups are in braces. A string of capitals states the bases alone. e = 2'-O-(2-methoxyethyl) (MOE); [5mC] = 5-methylcytosine; d = 2'-deoxy (DNA)

Experiments:
Assay type in all cases: cell-based, human
[1] = system: preadipocytes / differentiating adipocytes; test: Adipocyte differentiation assay, markers taken together; settings: for five markers of adipocyte differentiation / 5 markers of adipocyte differentiation / expression of the other four hallmark genes (HSL, aP2, Glut4, PPARγ): differentiating adipocytes; for 5 markers of adipocyte differentiation: % of UTC (Table 75); for expression levels of markers of adipocyte differentiation (TG, leptin, aP2, HSL, Glut4, PPARγ): preadipocytes, 250 nM, day nine post-transfection, relative to ISIS-29848; for expression of the other four hallmark genes (HSL, aP2, Glut4, PPARγ): control ISIS 342673
Procedure: Oligomeric compounds of the invention are tested for their effects on preadipocyte differentiation. […] For the other adipocyte differentiation markers assayed, an oligomeric compound targeted to PPAR-γ, also known to inhibit adipocyte differentiation, may be used as a positive control.
Cells are transfected as described herein. […] Untreated control cells receive LIPOFECTIN™ only.
After the cells have reach confluence (approximately three days), they are exposed for an additional three days to differentiation medium (Zen-Bio, Inc., Research Triangle Park, N.C.) containing a PPAR-γ agonist, IBMX, dexamethasone, and insulin. Cells are then fed adipocyte medium (Zen-Bio, Inc.), which is replaced at 2 or 3 day intervals.
For assaying adipocyte differentiation, expression of the four hallmark genes, HSL, aP2, Glut4, and PPARγ, as well as triglyceride (TG) accumulation and leptin secretion were measured in adipocytes transfected with the uniform 2′-MOE phosphorothioate (PS) oligomeric compounds previously described. Cells are lysed on day nine post-transfection, in a guanadinium-containing buffer and total RNA is harvested. Real-time PCR is performed (Applied Biosystems, Prism 7700) on the total RNA using the following primer/probe sets for the adipocyte differentiation hallmark genes: (aP2): forward 5′-GGTGGTGGAATGCGTCATG-3′ (SEQ ID NO: 746), reverse 5′-[…]-3′ (SEQ ID NO: 747), probe 5′-FAM-[…]-TAMRA-3′ (SEQ ID NO: 748); (Glut4): forward 5′-GGCCTCCGCAGGTTCTG-3′ (SEQ ID NO: 749), reverse 5′-[…]-3′ (SEQ ID NO: 750), probe 5′-FAM-[…]-TAMRA-3′ (SEQ ID NO: 751); (HSL): forward 5′-ACCTGCGCACAATGACACA-3′ (SEQ ID NO: 752), reverse 5′-[…]-3′ (SEQ ID NO: 753), probe 5′-FAM-[…]-TAMRA-3′ (SEQ ID NO: 754); (PPAR-γ): forward 5′-[…]-3′ (SEQ ID NO: 755), reverse 5′-[…]-3′ (SEQ ID NO: 756), probe 5′-FAM-[…]-TAMRA-3′ (SEQ ID NO: 757). The amount of total RNA in each sample is determined using a Ribogreen Assay (Molecular Probes, Eugene, Oreg.), and expression levels of the adipocyte differentiation hallmark genes were normalized to total RNA. Leptin protein and triglyceride levels as well as mRNA levels for each of the four adipocyte differentiation hallmark genes are expressed relative to control levels (control=treatment with ISIS-29848 (SEQ ID NO: 737)).
In some embodiments, differentiating adipocytes were treated with uniform 2′-MOE phosphorothioate oligomeric compounds according to the methods described above, and the expression of the four hallmark genes, HSL, aP2, Glut4, and PPARγ, as well as triglyceride (TG) accumulation were measured. […] Undifferentiated adipocytes were also compared as a negative control. […] The effects of TNF-α, also known to inhibit adipocyte differentiation, were also measured.

HeLa cells = test: Cell cycle assay in HeLa cells; settings: HeLa cells, 150 nM, 48 hours, relative to untreated control
T47D cells = test: Cell cycle assay in T47D cells; settings: 150 nM, 48 hours, relative to untreated control
Procedure: BJ cells were routinely cultured in MEM high glucose with 2 mM L-glutamine and Earle's BSS adjusted to contain 1.5 g/L sodium bicarbonate and supplemented with 10% fetal bovine serum, 0.1 mM non-essential amino acids and 1.0 mM sodium pyruvate (all media and supplements from Invitrogen Life Technologies, Carlsbad, Calif.). B16-F10 cells were routinely cultured in DMEM high glucose (Invitrogen Life Technologies, Carlsbad, Calif.) supplemented with 10% fetal bovine serum (Invitrogen Life Technologies, Carlsbad, Calif.). T47D cells were cultured in DMEM High glucose media (Invitrogen Life Technologies, Carlsbad, Calif.) supplemented with 10% fetal bovine serum. […] Cells were plated on collagen-coated 24-well plates (Falcon-Primaria #3047, BD Biosciences, Bedford, Mass.) at approximately 50,000 cells per well and allowed to attach to wells overnight.
(§1) In further studies, additional cell lines were treated with oligomeric compounds targeted against miRNAs to assess the effects of each oligomeric compound on cell cycling. BJ, B16, T47D, and HeLa cells were cultured and transfected as described above. […] T47Dp53 cells are T47D cells that have been transfected with and selected for maintenance of a plasmid that expresses a wildtype copy of the p53 gene (for example, pCMV-p53; Clontech, Palo Alto, Calif.), using standard laboratory procedures. BJ cells were treated with 200 nM of each oligomeric compound, and T47D, T47Dp53, HeLa, and B16 cells were treated with 150 nM of each oligomeric compound. The human foreskin fibroblast BJ cell line represents a non-cancer cell line, while HeLa, T47D, T47Dp53 cells and the mouse melanoma cell line B16-F10 represent cancerous cell lines. For comparison, oligomeric compounds ISIS 183891 (SEQ ID NO: 847) and ISIS 285717 ([…]; herein incorporated as SEQ ID NO: 857), both targeting the kinesin-like 1/Eg5 mRNA, involved in cell cycling, were used as positive controls. The random-mer ISIS 29848 was used as a negative control. Additionally, the oligomeric compounds ISIS Number 25690 ([…]; herein incorporated as SEQ ID NO: 858) and ISIS Number 25691 ([…]; herein incorporated as SEQ ID NO: 859), targeted to nucleotides 3051-3070 and 3085-3104, respectively, of the mRNA encoding the Drosha RNase III (GenBank Accession NM_013235.2, incorporated herein as SEQ ID NO: 860) were also tested. ISIS Number 25690 and ISIS Number 25691 are 5-10-52′-MOE gapmer compounds, 20 nucleotides in length, with phosphorothioate internucleoside linkages throughout the oligomeric compound. All cytidine residues are 5-methylcytidines. Transfections were performed using the methods described herein. Cells were prepared for flow cytometry 48-hours after oligonucleotide treatment. Results of these studies are shown in Table 35, where data are expressed as percentage of cells in each phase relative to the untreated control cells in that phase.

T47Dp53 cells = test: Cell cycle assay in T47Dp53 cells; settings: 150 nM, 48 hours, relative to untreated control
Procedure: as §1

For “ACTCACCGACAGCGTTGAATGTT (chemistry not given here) [ISIS 327904, uniform 2′-MOE PS; targets mir-181a]”, the “five markers of adipocyte differentiation” value ([1]; % of UTC (Table 55)) was “reduce the expression levels of all five markers of adipocyte differentiation”.
For “ATGACTACAAGTTTATGGCCA (chemistry not given here) [ISIS 328121, uniform 2′-MOE PS; targets hypothetical miRNA-161]”, the “5 markers of adipocyte differentiation” value [1] was “significant increases in all 5 markers of adipocyte differentiation” and the “five markers of adipocyte differentiation” value ([1]; control ISIS 342673 (Tables 17, 18)) was “increase in all five markers of adipocyte differentiation”.
In the case of “AACTATACAACCTACTACCTCA (chemistry not fully specified) [ISIS 327903, uniform 2′-MOE PS; targets let-7a-3]”, the “expression levels of markers of adipocyte differentiation (TG, leptin, aP2, HSL, Glut4, PPARγ)” value [1] is reported as “increase in expression levels for several markers of adipocyte differentiation”.
For “ISIS 346685: SEQ ID NO: 1884, targeted to mir-27 (Mourelatos) (antisense GGCGGAACUUAGCCACUGUGAA; all 2'-MOE, all phosphorothioate, methylation of C and T or U not given here)”, the “5 markers of adipocyte differentiation” value [1] was “significant increases in all 5 markers of adipocyte differentiation”.
With “CCCAACAACATGAAACTACCTA (chemistry not given here) [ISIS 327909, uniform 2′-MOE PS; targets mir-196-2]” the “five markers of adipocyte differentiation” value ([1]; % of UTC (Table 55)) was “increase in three of the five markers of adipocyte differentiation”.
“CAGACTCCCAACTGACCAGA (chemistry not fully specified) [ISIS 328382, 5-10-5 2′-MOE gapmer PS; targets the mir-143 pri-miRNA]” was tested, and the “expression of the adipocyte differentiation markers, compounds targeting mir-143 miRNA or pri-miRNA compared” value ([1]; preadipocytes (Table 20)) was “more effective in blocking adipocyte differentiation”.
In the case of “25690 (antisense eA*eT*e[5mC]*e[5mC]*e[5mC]*dT*dT*dT*d[5mC]*dT*dT*d[5mC]*d[5mC]*dG*d[5mC]*eA*eT*eG*eT*eG) [compound 25690]”, the “% cells in cell cycle phase G1” value (HeLa cells) is reported as 119%, the “% cells in cell cycle phase G2/M” value (HeLa cells) is reported as 87% and the “% cells in cell cycle phase S” value (HeLa cells) is reported as 89%. For the same substance, the “% cells in cell cycle phase aneuploid” value (HeLa cells) was 140%, the “% cells in cell cycle phase subG1” value (HeLa cells) was 64% and the “% cells in cell cycle phase G1” value (T47D cells) was 97%. The “% cells in cell cycle phase G2/M” value (T47D cells) was 113%, the “% cells in cell cycle phase S” value (T47D cells) was 80% and the “% cells in cell cycle phase aneuploid” value (T47D cells) was 140%. The “% cells in cell cycle phase subG1” value (T47D cells) was 97%, the “% cells in cell cycle phase G1” value (T47Dp53 cells) was 97% and the “% cells in cell cycle phase G2/M” value (T47Dp53 cells) was 114%. For the same substance, the “% cells in cell cycle phase S” value (T47Dp53 cells) was 108%, the “% cells in cell cycle phase aneuploid” value (T47Dp53 cells) was 144% and the “% cells in cell cycle phase subG1” value (T47Dp53 cells) was 193%.
For “ISIS 344615: SEQ ID NO: 1900, targeted to mir-244* (Kosik) (antisense UCAACAAAAUCACUGAUGCUGGA; all 2'-MOE, all phosphorothioate, methylation of C and T or U not given here)”, the “5 markers of adipocyte differentiation” value [1] was “significant increases in all 5 markers of adipocyte differentiation”.
“ISIS 341798: SEQ ID NO: 1871, targeted to mir-123/mir-126 (antisense GCAUUAUUACUCACGGUACGA; all 2'-MOE, all phosphorothioate, methylation of C and T or U not given here)” was tested, and the “5 markers of adipocyte differentiation” value [1] was “significantly reduce the expression levels of 3 of the 5 markers of adipocyte differentiation”.
With “AACTACTTCCAGAGCAGGTGA (anti-miR; chemistry not fully specified) [ISIS 328136, uniform 2′-MOE PS; targets hypothetical miRNA-181]” the “expression of the other four hallmark genes (HSL, aP2, Glut4, PPARγ)” value (shortened to “expression … (HSL, aP2, Glut4, PPARγ)”) [1] was “reduction of expression of the other four hallmark genes”.
“TCCTGGATGATATCTACCTC (chemistry not fully specified) [ISIS 328677, 5-10-5 2′-MOE gapmer PS; targets hypothetical miRNA-120 pri-miRNA]” was tested, and the “five markers of adipocyte differentiation” value ([1]; % of UTC (Table 55)) was “reduce the expression levels of all five markers of adipocyte differentiation”.
With “TCCACAAAGCTGAACATGTCT (anti-miR; chemistry not fully specified) [ISIS 328117, uniform 2′-MOE PS; targets hypothetical miRNA-144]” the “expression … (HSL, aP2, Glut4, PPARγ)” value [1] was “reduction of expression of the other four hallmark genes”.
For “CCCCATCTTAGCATCTAAGG (chemistry not fully specified) [ISIS 328691, 5-10-5 2′-MOE gapmer PS; targets mir-145 pri-miRNA]”, the “five markers of adipocyte differentiation” value ([1]; % of UTC (Table 55)) was “increase in all five markers of adipocyte differentiation”.
For “CCATCTTTACCAGACAGTGTT (anti-miR; chemistry not fully specified) [ISIS 327942, uniform 2′-MOE PS; targets mir-141]”, the “expression levels of markers of adipocyte differentiation (TG, leptin, aP2, HSL, Glut4, PPARγ)” value [1] was “significantly reduce the expression levels of 5 of 6 markers of adipocyte differentiation”.
With “AGCCTCCTTCTTCTCGTACTA (anti-miR; chemistry not fully specified) [ISIS 328129, uniform 2′-MOE PS; targets hypothetical miRNA-173]” the “expression … (HSL, aP2, Glut4, PPARγ)” value [1] was “reduction of expression of the other four hallmark genes”.
“ISIS 348127: SEQ ID NO: 1869, targeted to mir-27b (antisense GCAGAACUUAGCCACUGUGAA; all 2'-MOE, all phosphorothioate, methylation of C and T or U not given here)” was tested, and the “5 markers of adipocyte differentiation” value [1] was “significant increases in all 5 markers of adipocyte differentiation”.
For “ISIS 348117: SEQ ID NO: 1860, targeted to mir-321-1 (antisense GAACCCACAAUCCCUGGCUUA; all 2'-MOE, all phosphorothioate, methylation of C and T or U not given here)”, the “5 markers of adipocyte differentiation” value [1] was “significantly reduce the expression levels of 3 of the 5 markers of adipocyte differentiation”.
